Four compounds from patent US9855232B2, “Crystalline forms of bimatoprost acid, methods for preparation, and methods for use thereof” (Allergan, Inc., priority 2012, dated 2018) can be followed below.

Structures are written as SMILES. Values after ≈ are worked out from the molar mass of the structure shown. Like-named read-outs stand apart in the source and are kept apart here.

Format in all cases: physicochemical
Series [1] is described as follows: Thermodynamic equilibrium solubility in anisole. As for the experimental part: (§1) Anisole was selected as solvent based on good stability and measurable solubility of bimatoprost acid polymorphs in the studied temperature range. […] Another solvent, nitromethane, was selected to detect the solubility of bimatoprost acid at 9 and 22° C. […] At 22° C., both forms converted to oils where no comparison between the two polymorphs could be made.

Series [2] is described as follows: Solubility in nitromethane. As for the experimental part:
as §1

Series [3] is described as follows: Isothermal competitive co-slurries of polymorph I and II. To be noted: 1:1 ratio co-slurry at 5, 20 and 35° C. As for the experimental part:
The differences in free energy between the polymorphs were measured as a function of temperature in order to determine the transition temperature and relative stability versus temperature.

Series [4] in a line: Vapor sorption analysis (VSA). To be noted: for relative humidity at which the monohydrate (hydrated form) forms: first adsorption. As for the experimental part: The crystalline monohydrate form (designated polymorph III) was discovered upon vapor sorption analysis (VSA) of both polymorph I and polymorph II. […] The conversion of polymorph I to the monohydrate form was confirmed by XRPD. […] The 2nd adsorption cycle of polymorph II reconfirms formation of the monohydrate again at RH˜75% (FIG. 7). […] The thermal analysis (MDSC) of the monohydrate form indicates a melting endotherm onset (Tonset) at 53.9° C. and a fusion enthalpy (ΔHf) of 72.4 J/g for the monohydrate form (see FIG. 8).

As for `O=C(O)CCCC=CCC1C(O)CC(O)C1C=CC(O)CCc1ccccc1` (centres unmarked) [bimatoprost acid, 7-[3,5-Dihydroxy-2-(3-hydroxy-5-phenyl-pent-1-enyl)-cyclopentyl]-hept-5-enoic acid], the “physical state in solubility study” value in series [1] (temperatures above 40° C.) is given as “transforms to an oil”.
Take `O=C(O)CCCC=CCC1C(O)CC(O)C1C=CC(O)CCc1ccccc1` (centres unmarked) [polymorph I, 7-[3,5-Dihydroxy-2-(3-hydroxy-5-phenyl-pent-1-enyl)-cyclopentyl]-hept-5-enoic acid]: the solubility in series [2] (9 °C, organic solvent or mixture, thermodynamic from solid, read-out: solubility) worked out at 4100 ± 300 µg/mL (≈ 10.6 mM). Further, in series [3], the “polymorph conversion / relative stability” value is “converts to polymorph II at all three temperatures”. Moreover, the “relative humidity at which the monohydrate (hydrated form) forms” value in series [4] (25° C.) was roughly 75 % RH. Moreover, in series [4] (RH~75%, 25° C.), the water absorbed turned out to be 4.42 w/w %.
For the compound `O=C(O)CCCC=CCC1C(O)CC(O)C1C=CC(O)CCc1ccccc1` (centres unmarked) [polymorph II, 7-[3,5-Dihydroxy-2-(3-hydroxy-5-phenyl-pent-1-enyl)-cyclopentyl]-hept-5-enoic acid], the solubility in series [2] (9° C.) is 3300 ± 200 µg/mL (≈ 8.49 mM). Besides, in series [1] (6° C. and 25° C.), the “thermodynamic equilibrium solubility (comparison of polymorphs)” value is “lower solubility”. In addition, the “polymorph conversion / relative stability” value in series [3] was “more stable form over the temperature range of 5-35 °C”. Moreover, in series [4] (2nd adsorption cycle), the “relative humidity at which the monohydrate forms” value is roughly 75%. Also, the “relative humidity at which the monohydrate (hydrated form) forms” value in series [4] (25° C.) was “above 85 % RH”.
On to `O=C(O)CCCC=CCC1C(O)CC(O)C1C=CC(O)CCc1ccccc1` (centres unmarked) [polymorph III, 7-[3,5-Dihydroxy-2-(3-hydroxy-5-phenyl-pent-1-enyl)-cyclopentyl]-hept-5-enoic acid], for which the conversion upon drying entry in series [4] (drying in vapor sorption analyzer at 25° C.) is reported as “converted beck to the initial polymorph 1”.

One may read the solubility as how much of the substance goes into solution per volume.
